Source: patent publication US8138188B2, “Melanocortin type 4 receptor agonist piperidinoylpyrrolidines” (Pfizer Inc., priority 2006, dated 2012)

How the values were obtained:
[1] = biological target: MC4 receptor (Homo sapiens, UniProt P32245); assay: MC4 functional agonist potency (EC50), assay protocol E of US2005/0176772 / WO 2005/077935; type: cell-based; conditions: functional potency at the MC4 receptor
Description: The compounds of formula (I) of the present invention have utility as MCR4 agonists in the treatment of various disease states.
MC5 and MC4 EC50 activity was determined as described by assay protocols D and E, respectively, in US2005/0176772 (pages 28-30).

[2] = biological target: T1, human MC3 receptor (Homo sapiens, UniProt P41968); assay: In vitro agonist potency (EC50) against melanocortin receptor type 3, cAMP in recombinant cell line; type: cell-based; conditions: cell line stably transfected with human MC3, 1 hour at 37° C.
T1 construct: stably transfected with full length cDNA encoding human MC1 or MC3 receptors; expressed in transfected cells; host or cells: Chinese hamster ovary cell line (MC3; 'respectively')
T1 sequence (P41968 whole entry): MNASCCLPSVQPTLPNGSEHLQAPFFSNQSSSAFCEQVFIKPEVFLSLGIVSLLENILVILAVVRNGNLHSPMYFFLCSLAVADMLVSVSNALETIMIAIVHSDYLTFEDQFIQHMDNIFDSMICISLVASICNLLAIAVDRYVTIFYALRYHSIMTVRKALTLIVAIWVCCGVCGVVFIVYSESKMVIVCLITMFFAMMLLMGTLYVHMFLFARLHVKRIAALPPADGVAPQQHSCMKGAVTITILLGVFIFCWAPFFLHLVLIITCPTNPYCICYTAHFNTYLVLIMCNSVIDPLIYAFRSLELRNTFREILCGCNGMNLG
Description: Measurement of In Vitro Agonist Potency (EC50) of Compounds Against Melanocortin Receptors Type 1 and 3 (MC1 and MC3).
Activation of melanocortin (MC) receptors by agonists results in activation of intracellular adenylate cyclase enzymes that synthesise the second messenger signalling molecule, adenosine 3′,5′-cyclic monophosphate (cAMP). Changes in cAMP levels following treatment of recombinant MC1 and MC3 cell lines with test compound were measured and an MC1 and MC3 potency estimate (EC50) calculated as follows: […]
Human embryonic kidney (HEK) or Chinese hamster ovary cell lines stably transfected with full length cDNA encoding human MC1 or MC3 receptors, respectively, were established using standard molecular biology methods. Test compounds were dissolved in dimethyl sulfoxide (DMSO) at 4 mM. 11 point half log unit increment dilution series of test compound, typically starting at 50 uM were prepared in a buffer comprised of phosphate buffered saline (PBS), 2.5% DMSO and 0.05% pluronic F-127 surfactant. Freshly cultured cells at 80-90% confluence were harvested and re-suspended in Dulbecco's Modified Eagle's Medium (DMEM). Cells (10,000 for MC3, 20,000 for MC1) were added to the test compound dilution series in a 384 well assay plate and incubated for 1 hour at 37° C. The relative cAMP concentration in each well was then measured using a β-galactosidase enzyme fragment complementation method purchased in kit form as the Discoverx cAMP II kit from GE Healthcare/Amersham Biosciences UK. In the case of MC1,3-Isobutyl-1-methylxanthine (IBMX) at a concentration of 750 μM was included in DMEM as the cells were re-suspended for assay. […] Sigmoidal curves were fitted to plots of log10 inhibitor concentration vs percent effect using a custom made software application called SIGHTS and EC50 estimates determined by the software as the concentration of test compound giving an effect half way between the bottom and top assymptopes of the sigmoidal dose response curve. Each experiment included an EC50 determination for alpha melanocyte stimulating hormone, which was used as a standard to track assay consistency and allow fair comparison between EC50 estimates obtained in different experiments.

[3] = biological target: T2, CYP3A4 (Homo sapiens, UniProt P08684); assay: High density drug-drug interactions (DDI) 3 μM cocktail screen in human liver microsomes; type: in vitro ADME; conditions: 3 uM test compound, pooled human liver microsomes, probe midazolam 2 μM; read-out: % Inhibition of 3A4 metabolism at 3 uM
T2 construct: utilizes human liver microsomes together with isoform-specific clinical drug probes; from tissue; host or cells: human liver microsomes
T2 sequence (P08684 whole entry, canonical isoform): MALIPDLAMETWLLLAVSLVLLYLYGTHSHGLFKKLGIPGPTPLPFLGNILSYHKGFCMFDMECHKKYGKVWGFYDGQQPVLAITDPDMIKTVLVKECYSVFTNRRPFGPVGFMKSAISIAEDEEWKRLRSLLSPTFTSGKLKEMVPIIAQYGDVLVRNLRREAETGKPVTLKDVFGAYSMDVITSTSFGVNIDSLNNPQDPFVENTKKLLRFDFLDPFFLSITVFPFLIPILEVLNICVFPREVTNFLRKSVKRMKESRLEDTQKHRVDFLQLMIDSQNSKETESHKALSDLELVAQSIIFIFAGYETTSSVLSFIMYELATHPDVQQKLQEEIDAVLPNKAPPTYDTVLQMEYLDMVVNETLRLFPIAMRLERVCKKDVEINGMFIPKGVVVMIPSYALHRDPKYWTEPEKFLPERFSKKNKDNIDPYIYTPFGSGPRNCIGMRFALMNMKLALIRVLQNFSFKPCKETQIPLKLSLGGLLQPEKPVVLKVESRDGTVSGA
Description: High Density Drug-Drug Interactions (DDI) 3 μM Cocktail Screen
A drug interaction is a situation in which a substance affects the activity of another drug, i.e. the effects are increased or decreased, or together they produce a new effect that neither produces on its own. Drug interactions may be the result of various processes but a relatively common one is where one drug affects the pharmacokinetics of another by inhibiting the cytochrome P450 that metabolises it. Because of the importance of these phenomena, assessment of the DDI potential for new chemical entities (NCEs) is considered important early on in the drug discovery process.
The DDI cocktail screen in human liver microsomes (HLM) is run in a fully automated fashion and the aim of the screen is to provide a single-point assessment of the DDI potential of new chemical entity (NCE; tested at 3 μM) against the 4 primary cytochrome P450 enzymes, 1A2, 2D6, 2C9 and 3A4.
The substrate cocktail approach for P450 DDI utilizes human liver microsomes together with isoform-specific clinical drug probes and permits the simultaneous measurement of the inhibition of P450 1A2, 2C9, 2D6 & 3A4 activities in a single incubation. This is run in high throughput with simultaneous detection of metabolites by LC-MS/MS. This method has been thoroughly tested and evaluated using standard compounds.
Appearance of the metabolite of each substrate is measured over time in the presence and absence of the NCE (test compound/inhibitor) at a concentration of 3 μM. The compounds are assessed for their inhibitory potential as a percentage value and interpreted using the following scheme.

MC4 receptor, sequence (P32245 whole entry): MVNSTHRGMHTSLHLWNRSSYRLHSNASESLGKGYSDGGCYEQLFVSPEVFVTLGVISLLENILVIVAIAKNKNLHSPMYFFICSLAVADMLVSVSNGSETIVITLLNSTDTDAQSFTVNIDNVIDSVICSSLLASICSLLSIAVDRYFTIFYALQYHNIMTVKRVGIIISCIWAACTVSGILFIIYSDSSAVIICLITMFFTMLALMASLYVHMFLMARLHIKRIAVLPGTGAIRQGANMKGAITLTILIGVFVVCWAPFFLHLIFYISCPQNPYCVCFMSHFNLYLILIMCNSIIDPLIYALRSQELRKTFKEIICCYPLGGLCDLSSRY

SMILES	EC50 [1] [nM]	EC50 [2] [nM]	inhibition at 3 μM [3] [%]
C[C@@H]1CN(C(=O)[C@@H]2CN(c3ccc(=O)n(C)n3)C[C@H]2c2ccc(F)cn2)C[C@H](C)[C@@]1(O)c1ccc(Cl)cc1 [Example 7, 6-[(3S,4S)-3-{[(3R,4R,5S)-4-(4-chlorophenyl)-4-hydroxy-3,5-dimethylpiperidin-1-yl]carbonyl}-4-(5-fluoropyridin-2-yl)pyrrolidin-1-yl]-2-methylpyridazin-3(2H)-one]	40	1600	19
COc1ccc(C2CN(c3ccc(C#N)nn3)CC2C(=O)N2CC(C)C(O)(c3ccc(F)cc3)C(C)C2)cn1 (stereo not drawn) [Example 16]	34.3	323	83
C[C@@H]1CN(C(=O)[C@@H]2CN(c3ccc(=O)[nH]n3)C[C@H]2c2ccc(F)cn2)C[C@H](C)[C@@]1(O)c1ccc(Cl)cc1 [Example 6, 6-[(3S,4S)-3-{[(3R,4R,5S)-4-(4-chlorophenyl)-4-hydroxy-3,5-dimethylpiperidin-1-yl]carbonyl}-4-(5-fluoropyridin-2-yl)pyrrolidin-1-yl]pyridazin-3(2H)-one]	18.9	1460	32
CC1CN(C(=O)C2CN(c3cncc(F)c3)CC2c2ccc(Cl)cn2)CC(C)C1(O)C1CC1 (stereo not drawn) [Example 24]	59.3	2510	87
C[C@@H]1CN(C(=O)[C@@H]2CN(c3ccc(Cl)nn3)C[C@H]2c2ccc(Cl)cn2)C[C@H](C)[C@@]1(O)c1ccccn1 [Example 31]	22.9	410	60
C[C@@H]1CN(C(=O)[C@@H]2CN(c3ccc(Cl)nn3)C[C@H]2c2ccc(F)cn2)C[C@H](C)[C@@]1(O)c1ccccc1 [Example 35]	62.2	878	46
CC1CN(C(=O)C2CN(c3ccc(C#N)nn3)CC2c2ccc(F)cn2)CC(C)C1(O)c1ccccc1 (stereo not drawn) [Example 33]	13.4	193	19
